Publication PMC8147360, “AGMO Inhibitor Reduces 3T3-L1 Adipogenesis” (Cells, 2021)

What was measured:
[1] = molecular target: T1, Alkylglycerol monooxygenase (AGMO) (Rattus norvegicus, UniProt A0JPQ8); assay: HPLC fluorescence activity assay with 1-O-pyrenedecyl-sn-glycerol in rat liver microsomes, coupled to FALDH (FALDH not inhibited); format: biochemical
T1 construct: native enzyme in rat liver microsomes
T1 sequence (A0JPQ8 1-447): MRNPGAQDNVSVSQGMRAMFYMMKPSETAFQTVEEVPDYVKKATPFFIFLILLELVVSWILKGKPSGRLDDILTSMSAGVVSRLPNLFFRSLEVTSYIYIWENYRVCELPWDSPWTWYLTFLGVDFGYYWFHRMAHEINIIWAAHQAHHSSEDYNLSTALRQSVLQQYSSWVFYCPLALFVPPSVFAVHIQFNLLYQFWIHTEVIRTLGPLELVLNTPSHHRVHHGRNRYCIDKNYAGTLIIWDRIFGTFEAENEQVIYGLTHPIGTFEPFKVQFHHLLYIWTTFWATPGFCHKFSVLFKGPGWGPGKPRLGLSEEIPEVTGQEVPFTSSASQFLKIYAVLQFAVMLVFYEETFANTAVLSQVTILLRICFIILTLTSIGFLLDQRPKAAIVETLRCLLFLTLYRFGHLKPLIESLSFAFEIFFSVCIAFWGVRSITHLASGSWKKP

[2] = molecular target: T2, phenylalanine hydroxylase (PAH) (Rattus norvegicus, UniProt P04176); assay: HPLC tyrosine fluorescence assay with purified recombinant PAH; format: biochemical
T2 construct: rat PAH maltose fusion protein, expressed in E. coli
T2 sequence (P04176 2-453): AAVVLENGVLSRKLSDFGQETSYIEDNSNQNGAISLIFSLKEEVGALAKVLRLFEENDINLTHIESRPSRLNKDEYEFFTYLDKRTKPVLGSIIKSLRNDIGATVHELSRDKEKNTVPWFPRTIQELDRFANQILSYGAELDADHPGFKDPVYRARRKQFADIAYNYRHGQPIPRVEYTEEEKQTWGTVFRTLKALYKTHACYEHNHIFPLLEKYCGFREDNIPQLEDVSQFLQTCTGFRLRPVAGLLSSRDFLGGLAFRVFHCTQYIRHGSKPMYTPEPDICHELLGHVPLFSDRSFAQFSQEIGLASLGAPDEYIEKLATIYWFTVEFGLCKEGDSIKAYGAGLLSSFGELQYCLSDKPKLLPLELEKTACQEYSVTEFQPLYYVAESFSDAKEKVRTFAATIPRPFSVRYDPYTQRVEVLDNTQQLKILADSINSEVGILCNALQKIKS

CC1Nc2nc(N(C)C)[nH]c(=O)c2NC1C (centres unmarked) [compound 6, 2-(dimethylamino)-6,7-dimethyl-5,6,7,8-tetrahydro-4(3H)-pteridinone]
IC50 [1]: ~50 µM
IC50 [2]: 360 to 430 µM
